# pIC50: −log10 of the molar value.
# Experiments:
# [1] = target: Vascular endothelial growth factor receptor 2 (Homo sapiens, UniProt P35968); assay: Inhibition of human vascular endothelial growth factor receptor 2 kinase activity
# [2] = target: Fibroblast growth factor receptor (Homo sapiens, UniProt P22607+P11362+P22455+P21802); assay: Inhibition of FGF-stimulated human umbilical vein endothelial cell proliferation; format: functional, cell-based
# [3] = target: Fibroblast growth factor receptor 1 (Homo sapiens, UniProt P11362); assay: Inhibition of human fibroblast growth factor receptor 1
# Fibroblast growth factor receptor 1, sequence (P11362 whole entry): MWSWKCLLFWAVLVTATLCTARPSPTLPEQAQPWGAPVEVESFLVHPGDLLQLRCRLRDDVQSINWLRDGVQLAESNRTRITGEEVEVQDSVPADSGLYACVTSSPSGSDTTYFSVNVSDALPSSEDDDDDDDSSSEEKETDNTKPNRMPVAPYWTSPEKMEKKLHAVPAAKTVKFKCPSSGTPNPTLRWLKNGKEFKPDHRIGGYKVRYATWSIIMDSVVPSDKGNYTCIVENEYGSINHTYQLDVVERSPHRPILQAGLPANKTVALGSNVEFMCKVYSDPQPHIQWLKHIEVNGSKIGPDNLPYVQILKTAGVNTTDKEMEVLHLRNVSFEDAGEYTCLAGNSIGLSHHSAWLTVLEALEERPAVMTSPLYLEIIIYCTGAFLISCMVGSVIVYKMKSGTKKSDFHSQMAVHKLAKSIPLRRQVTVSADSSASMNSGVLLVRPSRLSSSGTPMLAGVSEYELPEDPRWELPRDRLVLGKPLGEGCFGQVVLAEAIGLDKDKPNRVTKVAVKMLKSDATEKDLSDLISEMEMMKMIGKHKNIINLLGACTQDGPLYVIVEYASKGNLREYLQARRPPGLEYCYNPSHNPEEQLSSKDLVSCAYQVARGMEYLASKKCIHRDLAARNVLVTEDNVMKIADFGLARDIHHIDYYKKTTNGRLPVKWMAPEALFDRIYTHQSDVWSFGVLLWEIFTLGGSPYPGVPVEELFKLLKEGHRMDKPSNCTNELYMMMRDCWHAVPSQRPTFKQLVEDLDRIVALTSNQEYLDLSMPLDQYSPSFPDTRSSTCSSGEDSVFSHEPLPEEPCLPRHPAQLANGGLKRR
# [4] = target: Vascular endothelial growth factor receptor (Homo sapiens, UniProt P17948+P35916+P35968); assay: Inhibition of VEGF-stimulated human umbilical vein endothelial cell proliferation; format: functional, cell-based
# [5] = target: Protein kinase C alpha type (Homo sapiens, UniProt P17252); assay: Inhibition of human protein kinase C alpha
# [6] = target: Receptor tyrosine-protein kinase erbB-2 (Homo sapiens, UniProt P04626); assay: Inhibition against human HER2 kinase
# Receptor tyrosine-protein kinase erbB-2, sequence (P04626 whole entry): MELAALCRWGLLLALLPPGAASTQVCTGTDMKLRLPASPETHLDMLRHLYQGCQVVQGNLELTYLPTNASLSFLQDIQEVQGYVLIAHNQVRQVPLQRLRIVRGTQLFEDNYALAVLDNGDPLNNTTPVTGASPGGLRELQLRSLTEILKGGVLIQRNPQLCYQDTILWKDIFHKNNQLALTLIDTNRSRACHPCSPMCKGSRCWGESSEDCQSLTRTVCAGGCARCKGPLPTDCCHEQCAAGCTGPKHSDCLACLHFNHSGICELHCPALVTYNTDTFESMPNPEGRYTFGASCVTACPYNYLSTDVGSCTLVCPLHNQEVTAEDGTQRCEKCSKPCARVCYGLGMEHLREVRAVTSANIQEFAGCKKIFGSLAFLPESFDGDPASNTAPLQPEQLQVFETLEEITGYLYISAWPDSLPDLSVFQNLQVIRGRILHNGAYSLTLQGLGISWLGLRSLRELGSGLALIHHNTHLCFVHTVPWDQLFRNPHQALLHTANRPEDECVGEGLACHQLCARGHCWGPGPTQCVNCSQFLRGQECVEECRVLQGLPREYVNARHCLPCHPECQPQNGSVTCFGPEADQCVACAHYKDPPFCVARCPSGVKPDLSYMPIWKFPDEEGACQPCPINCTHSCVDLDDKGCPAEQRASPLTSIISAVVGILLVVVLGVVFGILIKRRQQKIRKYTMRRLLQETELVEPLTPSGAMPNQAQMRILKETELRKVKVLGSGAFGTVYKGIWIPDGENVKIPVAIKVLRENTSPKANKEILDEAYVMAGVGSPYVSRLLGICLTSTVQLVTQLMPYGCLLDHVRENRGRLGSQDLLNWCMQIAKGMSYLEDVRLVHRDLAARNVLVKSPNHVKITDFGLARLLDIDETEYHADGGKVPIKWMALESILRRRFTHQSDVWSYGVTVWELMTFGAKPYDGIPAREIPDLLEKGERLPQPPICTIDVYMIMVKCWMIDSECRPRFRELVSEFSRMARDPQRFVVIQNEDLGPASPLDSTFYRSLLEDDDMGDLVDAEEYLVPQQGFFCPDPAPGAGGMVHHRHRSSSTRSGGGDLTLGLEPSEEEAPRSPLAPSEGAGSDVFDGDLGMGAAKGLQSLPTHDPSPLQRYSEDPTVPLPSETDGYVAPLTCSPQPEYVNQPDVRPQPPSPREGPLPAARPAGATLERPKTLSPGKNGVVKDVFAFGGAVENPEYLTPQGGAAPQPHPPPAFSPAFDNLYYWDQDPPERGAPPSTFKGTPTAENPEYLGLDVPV
# [7] = target: Cyclin-dependent kinase 2 (Homo sapiens, UniProt P24941); assay: Inhibition of human cyclin-dependent kinase 2
# [8] = target: Tyrosine-protein kinase Lck (Homo sapiens, UniProt P06239); assay: Inhibition of human p56 lck tyrosine kinase
# Tyrosine-protein kinase Lck, sequence (P06239 whole entry): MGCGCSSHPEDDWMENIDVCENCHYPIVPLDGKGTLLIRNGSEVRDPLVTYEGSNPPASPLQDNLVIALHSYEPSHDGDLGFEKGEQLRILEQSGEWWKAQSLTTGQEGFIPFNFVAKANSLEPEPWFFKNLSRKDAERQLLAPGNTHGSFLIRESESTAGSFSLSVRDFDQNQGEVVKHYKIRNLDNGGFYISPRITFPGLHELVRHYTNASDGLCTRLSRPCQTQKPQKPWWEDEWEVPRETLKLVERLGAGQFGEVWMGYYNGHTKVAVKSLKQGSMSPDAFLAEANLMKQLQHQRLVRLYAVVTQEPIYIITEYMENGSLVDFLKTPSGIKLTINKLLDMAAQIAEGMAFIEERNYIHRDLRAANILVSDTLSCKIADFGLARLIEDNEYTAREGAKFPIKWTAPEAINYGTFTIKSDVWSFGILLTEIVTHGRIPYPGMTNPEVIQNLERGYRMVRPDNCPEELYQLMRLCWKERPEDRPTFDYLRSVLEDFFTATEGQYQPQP
# [9] = test system: Mus musculus; assay: Tumor growth inhibition of L2987 human lung carcinoma xenografts implanted subcutaneously in athymic mouse after oral administration of 50 mg/kg/day; format: functional; settings: read-out: TGI
# [10] = test system: Mus musculus; assay: Tumor growth inhibition of L2987 human lung carcinoma xenografts implanted subcutaneously in athymic mouse after oral administration of 100 mg/kg/day; format: functional; settings: read-out: TGI
# [11] = test system: Mus musculus; assay: Tumor growth inhibition of L2987 human lung carcinoma xenografts implanted subcutaneously in athymic mouse after oral administration of 150 mg/kg/day; format: functional; settings: read-out: TGI
# [12] = Mean residence time determined after administration of 5 mg/kg dose iv in mouse; format: ADME, organism-based; design: dose 5 mg/kg, route intravenous; settings: in vivo
# [13] = Mean residence time determined after administration of 10 mg/kg dose po in mouse; format: ADME, organism-based; design: dose 10 mg/kg, route oral; settings: in vivo
# [14] = Steady-state volume of distribution determined after administration of 5 mg/kg dose iv in mouse; format: ADME, organism-based; design: dose 5 mg/kg, route intravenous; settings: in vivo, read-out: Vss
# [15] = Maximum plasma concentration determined after administration of 5 mg/kg dose iv in mouse; format: ADME, organism-based; design: dose 5 mg/kg, route intravenous
# [16] = Maximum plasma concentration determined after administration of 10 mg/kg dose po in mouse; format: ADME, organism-based; design: dose 10 mg/kg, route oral
# [17] = Half-life determined after administration of 5 mg/kg dose iv in mouse; format: ADME, organism-based; design: dose 5 mg/kg, route intravenous; settings: in vivo
# [18] = Half-life determined after administration of 10 mg/kg dose po in mouse; format: ADME, organism-based; design: dose 10 mg/kg, route oral; settings: in vivo
# [19] = Systemic plasma clearance determined after administration of 5 mg/kg dose iv in mouse; format: ADME, organism-based; design: dose 5 mg/kg, route intravenous
# [20] = Area under curve determined after administration of 5 mg/kg dose iv in mouse; format: ADME, organism-based; design: dose 5 mg/kg, route intravenous; settings: in vivo
# [21] = Area under curve determined after administration of 10 mg/kg dose po in mouse; format: ADME, organism-based; design: dose 10 mg/kg, route oral; settings: in vivo
# [22] = Total time required to reach maximum plasma concentration after administration of 10 mg/kg dose po in mouse; format: ADME, organism-based; design: dose 10 mg/kg, route oral
# [23] = Oral bioavailability determined after administration of 10 mg/kg dose po in mouse; format: ADME, organism-based; settings: in vivo
# [24] = Plasma level after 1 hour of oral administration of 10 mg/kg compound in mouse
# [25] = Plasma level after 4 hours of oral administration of 10 mg/kg compound in mouse
# [26] = target: Insulin-like growth factor 1 receptor (Homo sapiens, UniProt P08069); assay: Inhibition of human insulin-like growth factor I receptor
# [27] = target: Platelet-derived growth factor receptor beta (Homo sapiens, UniProt P09619); assay: Inhibition of human platelet-derived growth factor receptor beta
# [28] = Plasma level after 1 hour of oral administration of 50 mg/kg compound in mouse; format: ADME, organism-based; design: dose 50 mg/kg, route oral; settings: read-out: Plasma level
# [29] = Plasma level after 4 hours of oral administration of 50 mg/kg compound in mouse; format: ADME, organism-based; design: dose 50 mg/kg, route oral; settings: read-out: Plasma level
# Vascular endothelial growth factor receptor 2, sequence (P35968 whole entry): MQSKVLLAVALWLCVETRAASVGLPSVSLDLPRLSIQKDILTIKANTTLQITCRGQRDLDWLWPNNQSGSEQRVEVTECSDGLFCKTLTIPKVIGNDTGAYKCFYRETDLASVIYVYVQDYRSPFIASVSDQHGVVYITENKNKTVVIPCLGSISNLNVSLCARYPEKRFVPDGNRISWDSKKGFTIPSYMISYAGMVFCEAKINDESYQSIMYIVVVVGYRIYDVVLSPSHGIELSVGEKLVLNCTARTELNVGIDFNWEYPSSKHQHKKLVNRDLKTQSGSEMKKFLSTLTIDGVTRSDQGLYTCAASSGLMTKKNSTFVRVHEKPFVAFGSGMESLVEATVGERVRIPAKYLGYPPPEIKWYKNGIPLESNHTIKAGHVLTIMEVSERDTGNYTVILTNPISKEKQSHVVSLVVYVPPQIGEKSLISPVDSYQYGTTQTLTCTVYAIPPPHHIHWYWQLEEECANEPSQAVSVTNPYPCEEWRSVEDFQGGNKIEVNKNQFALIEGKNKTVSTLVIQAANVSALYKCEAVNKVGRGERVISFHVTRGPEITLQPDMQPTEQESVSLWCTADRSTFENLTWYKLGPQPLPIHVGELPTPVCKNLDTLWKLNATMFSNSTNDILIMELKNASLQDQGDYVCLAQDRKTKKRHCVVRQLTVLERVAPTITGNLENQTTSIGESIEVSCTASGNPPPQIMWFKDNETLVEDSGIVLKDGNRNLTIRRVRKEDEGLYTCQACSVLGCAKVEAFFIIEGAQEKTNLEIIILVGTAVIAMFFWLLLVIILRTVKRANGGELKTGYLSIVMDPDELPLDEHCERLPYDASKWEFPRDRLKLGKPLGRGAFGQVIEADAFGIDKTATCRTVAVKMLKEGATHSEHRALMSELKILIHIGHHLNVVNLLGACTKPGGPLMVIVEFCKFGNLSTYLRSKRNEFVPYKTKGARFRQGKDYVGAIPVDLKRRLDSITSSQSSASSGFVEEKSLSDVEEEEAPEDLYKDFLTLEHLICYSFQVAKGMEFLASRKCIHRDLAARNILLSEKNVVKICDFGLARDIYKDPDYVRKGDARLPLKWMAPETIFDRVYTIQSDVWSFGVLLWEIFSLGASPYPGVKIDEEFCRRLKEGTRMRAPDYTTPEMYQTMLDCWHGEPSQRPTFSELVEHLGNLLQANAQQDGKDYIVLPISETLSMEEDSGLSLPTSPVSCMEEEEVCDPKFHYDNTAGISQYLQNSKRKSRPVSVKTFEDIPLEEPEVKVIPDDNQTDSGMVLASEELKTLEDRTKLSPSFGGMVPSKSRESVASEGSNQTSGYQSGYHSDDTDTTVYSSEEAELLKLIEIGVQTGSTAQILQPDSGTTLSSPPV
smiles,measurement,setting,value
CCOC(=O)c1cn2ncnc(Nc3cc(C(=O)NOC(C)C)c(F)cc3F)c2c1C(C)C,pIC50,[1],6.46
CONC(=O)c1cc(Nc2ncnn3cc(-c4nnc(N(C)C)o4)c(C(C)C)c23)c(F)cc1F,IC50,[2],7.3 nM
same,pIC50,[3],7.74
same,pIC50,[1],7.96
same,IC50,[4],6.7 nM
CCONC(=O)c1cc(Nc2ncnn3cc(C(=O)OCC)c(C(C)C)c23)c(F)cc1F,pIC50,[1],7.40
CONC(=O)c1cc(Nc2ncnn3cc(-c4nnc(C(F)(F)S(C)(=O)=O)o4)c(C(C)C)c23)c(F)cc1F,IC50,[2],130 nM
same,pIC50,[5],< 4.30
same,pIC50,[6],< 4.60
same,pIC50,[7],< 4.30
same,pIC50,[8],5.11
same,pIC50,[3],6.66
same,inhibition in vivo at 50 mg/kg/day,[9],63.9%
same,inhibition in vivo at 100 mg/kg/day,[10],87.5%
same,inhibition in vivo at 150 mg/kg/day,[11],94.2%
same,MRT,[12],4.9 h
same,MRT,[13],5.2 h
same,Vd,[14],0.45 L/kg
same,Cmax,[15],23.7 µM
same,Cmax,[16],27.7 µM
same,half-life,[17],2.5 h
same,half-life,[18],3.6 h
same,clearance,[19],1.53 mL/min/kg
same,AUC,[20],97.4 µM·h
same,AUC,[21],155 µM·h
same,Tmax,[22],0.5 h
same,bioavailability,[23],79%
same,concentration at 1 h,[24],26.6 µM
same,concentration at 4 h,[25],13.8 µM
CCOC(=O)c1cn2ncnc(Nc3cc(C(=O)NOC)ccc3F)c2c1C(C)C,pIC50,[1],7.47
CCOC(=O)c1cn2ncnc(Oc3cccc(C(=O)NOC)c3)c2c1C(C)C,pIC50,[1],6.57
CCOC(=O)c1cn2ncnc(Nc3ccc(F)c(C(=O)NOC)c3)c2c1C(C)C,pIC50,[1],7.10
CCOC(=O)c1cn2ncnc(Nc3cccc(C(=O)NOC)c3)c2c1C(C)C,pIC50,[1],6.89
CONC(=O)c1cc(Nc2ncnn3cc(-c4nnc(C)o4)c(C(C)C)c23)c(F)cc1F,IC50,[2],6.5 nM
same,pIC50,[5],< 4.30
same,pIC50,[6],5.10
same,pIC50,[7],< 4.30
same,pIC50,[3],7.72
same,pIC50,[26],< 4.60
same,pIC50,[27],< 5.70
same,concentration at 1 h,[28],132 µM
same,concentration at 4 h,[29],37.7 µM
CCOC(=O)c1cn2ncnc(Nc3ccc(C)c(C(=O)NOC)c3)c2c1C(C)C,pIC50,[1],6.92
CCOC(=O)Nc1cn2ncnc(Nc3cc(C(=O)NOC)c(F)cc3F)c2c1C(C)C,pIC50,[1],7.18
same,IC50,[4],31 nM
CONC(=O)c1cc(Nc2ncnn3cc(-c4nnc(C(F)(F)F)o4)c(C(C)C)c23)c(F)cc1F,IC50,[2],33 nM
same,pIC50,[3],7.08
same,pIC50,[1],7.12
same,IC50,[4],35 nM
CONC(=O)c1cc(Nc2ncnn3cc(NC(=O)OCC4CCCO4)c(C(C)C)c23)c(F)cc1F (stereo not given),pIC50,[5],< 4.30
same,pIC50,[6],< 5.00
same,pIC50,[7],< 4.30
same,pIC50,[26],< 4.60
same,concentration at 1 h,[28],29.5 µM
same,concentration at 4 h,[29],2.9 µM
CONC(=O)c1cc(Nc2ncnn3cc(-c4nc(C)no4)c(C(C)C)c23)c(F)cc1F,IC50,[2],7.6 nM
same,pIC50,[3],6.96
same,pIC50,[1],7.31
same,IC50,[4],6.8 nM
CCc1nnc(-c2cn3ncnc(Nc4cc(C(=O)NOC)c(F)cc4F)c3c2C(C)C)o1,IC50,[2],4.7 nM
same,pIC50,[3],7.55
same,pIC50,[1],7.77
same,IC50,[4],1.8 nM
CONC(=O)c1cc(Nc2ncnn3cc(-c4nnc(CN(C)C)o4)c(C(C)C)c23)c(F)cc1F,pIC50,[3],6.83
same,pIC50,[1],7.18
CONC(=O)c1cc(Nc2ncnn3cc(-c4nnc(C(C)C)o4)c(C(C)C)c23)c(F)cc1F,IC50,[2],1 nM
same,pIC50,[3],7.41
same,pIC50,[1],7.66
same,IC50,[4],18 nM
CONC(=O)c1cc(Nc2ncnn3cc(NC(=O)OCc4ccccc4)c(C(C)C)c23)c(F)cc1F,pIC50,[1],6.74

# Reference: ChEMBL document CHEMBL1144449, “Design, synthesis, and evaluation of orally active 4-(2,4-difluoro-5-(methoxycarbamoyl)phenylamino)pyrrolo[2,1-f][1,2,4]triazines as dual vascular endothelial growth factor receptor-2 and fibroblast growth factor receptor-1 inhibitors” (J Med Chem, 2005)
